According to patent US20230181555A1, “STABLE AND PRESERVED PHARMACEUTICAL COMPOSITIONS OF BILASTINE” (priority 2019, published 2023):

How the values were obtained:
[1] = Solubility of bilastine in water; assay type: physicochemical; details: pH-dependent
[2] = Solubility of bilastine and mometasone furoate in formulations with HPBCD; assay type: physicochemical; details: HPBCD 75 mg/mL (7.5 wt %); FIG. 1B
Procedure: Six different formulations (with mometasone furoate monohydrate and the rest of excipients as defined in example 7) were prepared (see table below). The six formulations had amounts of HPBCD from 12.5 to 100 mg/mL. Then, in each of them an excessive amount of bilastine was added and the maximum solubility was tested. Furthermore, the percentage of the mometasone furoate dissolved was also tested. All the measurements were conducted at time 0.

solubility in water [1] | solubility of mometasone furoate [2] | SMILES
only slightly soluble | – | CCOCCn1c(C2CCN(CCc3ccc(C(C)(C)C(=O)O)cc3)CC2)nc2ccccc21 [Bilastine, 2-[4-(2-{4-[1-(2-ethoxyethyl)-1H-benzimidazol-2-yl]-1-piperidinyl}ethyl)phenyl]-2-methylpropanoic acid]
– | around 4 mg/mL | C[C@@H]1C[C@H]2[C@@H]3CCC4=CC(=O)C=C[C@]4(C)[C@@]3(Cl)[C@@H](O)C[C@]2(C)[C@@]1(OC(=O)c1ccco1)C(=O)CCl.O [Mometasone Furoate monohydrate, Mometasone furoate monohydrate]
